Reference: US9556217B2, “Amphiphilic compounds” (WISCONSIN ALUMNI RESEARCH FOUNDATION, priority 2012, dated 2017)

What was measured:
CMP-Sia = target: T1, CMP-Sia (Mus musculus, UniProt Q61420); assay: CPM thermal stability assay, CMP-Sia; design: species or system murine; settings: CMC+0.04 wt %, 30° C., under the conditions used for the gel filtration analysis
T1 construct: GFP-His (C, cleaved yes); made in house; host or cells: Saccharomyces cerevisiae
T1 sequence (Q61420 1-336): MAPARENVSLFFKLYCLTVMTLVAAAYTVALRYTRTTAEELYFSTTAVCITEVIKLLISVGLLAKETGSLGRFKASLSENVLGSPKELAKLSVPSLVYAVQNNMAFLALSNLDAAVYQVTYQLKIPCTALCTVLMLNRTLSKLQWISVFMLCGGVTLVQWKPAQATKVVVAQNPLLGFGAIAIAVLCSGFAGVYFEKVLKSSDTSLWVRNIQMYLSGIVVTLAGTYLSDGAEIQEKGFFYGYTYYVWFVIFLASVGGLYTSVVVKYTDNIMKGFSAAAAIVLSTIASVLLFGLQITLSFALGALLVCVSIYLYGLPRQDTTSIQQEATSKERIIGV
Experimental: FIG. 6. CPM assays for (a) CMP-Sia, (b) GlpG and (c) SQR solubilized with each new amphiphile or DDM. The coumarin moiety of CPM is internally quenched by the maleimide unit, but the coumarin becomes fluorescent following reaction with Cys side chain thiol groups exposed upon protein unfolding. The CPM assay can therefore be used to monitor the extent of protein unfolding. CMP-Sia and GlpG were initially extracted from the native membrane with 1% DDM in PBS, 10 mM imidazole (pH 8.0), 150 mM NaCl, 10% glycerol, and isolated in 20 mM Tris (pH 7.5), 150 mM NaCl containing 0.03% DDM. SQR was extracted from the membrane using 2% C12E9 in 20 mM potassium phosphate (pH 7.4), 0.2 M EDTA, and isolated in 20 mM Tris (pH 7.6), 0.2% decyl-β-D-maltoside (DM). […] The “Relative amount of folded protein” in each case is defined as follows: 100% corresponds to the fluorescence emission intensity at time=0 min; 0% corresponds to the lowest value measured among the amphiphile-treated samples for each protein during the 130 min assay period. […] For GlpG and SQR, 0% is defined by the lowest value measured for protein solubilized with DDM. […]
CMP-Sia and GlpG were expressed as fusion proteins with a C-terminal GFP-His tag in Saccharomyces cerevisiae and Escherichia coli respectively. […]

LHI-RC superassembly = assay: Extraction of LHI-RC superassembly from membranes; design: species or system R. capsulatus; settings: 2 wt % GDN
Experimental: The favorable MelB extraction performance of GDN led to the examination of this amphiphile for extraction of other IMPs. […] DDM and GDN were used to extract a CMP-Sia fusion protein bearing green fluorescent protein (GFP) at the C-terminus, after expression in Saccharomyces cerevisiae; the amount of solubilized protein was estimated by total fluorescence. GDN (2 wt %), DDM (1 wt %) and OG (1 wt %) gave ˜70%, ˜80% and ˜50% extraction yields, respectively.
The procedure was performed according to the protocol reported by Chae and coworkers (Nat. Methods 2010, 7, 1003-1008).
The solubilization and stability of the R. capsulatus superassembly were assessed according to the published protocol (Chae et al., J. Am. Chem. Soc. 2010, 132, 16750-16752). Briefly, specialized photosynthetic membranes obtained from an engineered strain of Rhodobacter (R.) capsulatus, U43[pUHTM86Bgl], lacking the LHII light-harvesting complex, were used. Solubilization of the LHI-RC superassembly began by thawing, homogenizing, and incubating frozen aliquots of R. capsulatus membranes at 32° C. for 30 min. Subsequent 30-min incubation was performed after adding DDM or LDAO at 1.0 wt % or GDN at 2.0 wt % in the solid form. […] To assess solubilization efficiency, UV-Vis spectra of the solubilized protein solutions were measured in a range of 650˜950 nm.

Row | Structure (SMILES) | Relative amount of folded protein (CPM assay), CMP-Sia (CMP-Sia) [%] | LHI-RC superassembly extraction compared with 1 wt % DDM (LHI-RC superassembly)
1 | CCCCCCCCCCCCO[C@@H]1O[C@H](CO)[C@@H](O[C@H]2O[C@H](CO)[C@@H](O)[C@H](O)[C@H]2O)[C@H](O)[C@H]1O [DDM, dodecyl-β-D-maltoside, reference compound] | ~20 | 
2 | C[C@@H]1CC[C@@]2(OC1)O[C@H]1C[C@H]3[C@@H]4CC=C5C[C@@H](OCCC(CO[C@@H]6OC(CO)[C@@H](O[C@H]7OC(CO)[C@@H](O)C(O)C7O)C(O)C6O)CO[C@@H]6OC(CO)[C@@H](O[C@H]7OC(CO)[C@@H](O)C(O)C7O)C(O)C6O)CC[C@]5(C)[C@H]4CC[C@]3(C)[C@@H]1[C@@H]2C (some centres unmarked) [GDN, glyco-diosgenin] |  | Comparable results
